{"source": "paper PMC10418735", "about": "“Lipophilic Studies and In Silico ADME Profiling of Biologically Active 2-Aminothiazol-4(5H)-one Derivatives” (International Journal of Molecular Sciences, 2023)", "key": {"[1]": {"assay": "Lipophilicity by RP-TLC (methanol/water, HPTLC 60RP-18 plates)", "assay_type": "physicochemical", "settings": "for −S (slope of the regression curve), RP–TLC / RM0: methanol/water, RP-TLC; for RM0: extrapolated to zero methanol concentration, 22 °C; for Φ0 (chromatographic lipophilicity parameter), RP–TLC: Φ0 = −RM0/S", "protocol": "Specifically, 10 × 10 cm plates with silica gel HPTLC 60RP-18 WF254s (Merck, Darmstadt, Niemcy) were used as the stationary phase. Methanol and water for HPLC from POCH (Gliwice, Poland) were used as solvents. Methanol concentration expressed as volume fraction v/v, varied in the range from 0.5 to 0.7 in constant steps of 0.05. Test compounds were dissolved in methanol (2 mg/mL), and then samples (0.01 mL) of each were applied to plates, which were developed in a horizontal DS chamber (Chromdes, Lublin, Poland).\nThe developing distance was 8 cm. Developed plates were air-dried and observed under 254 nm ultraviolet lamp. All analyzes were performed at 22 °C. Experiments were performed in triplicate with similar results.\nFor all the compounds, the relative lipophilicity RM values for five methanol–water mobile phases were calculated by the use of the following formula:(4) RM=log[1−RF/RF].\nThe linear relationship between the RM values and the concentration of methanol in the mobile phase to determine the lipophilicity parameters RM0 is described by the following equation:(5) RM=RM0+SΦ, where Φ —methanol concentration in the mobile phase (volume fraction v/v), and S—the slope of the regression curve.\nThe quantity Φ0 was calculated from the following equation:(6) Φ0=−RM0/S."}, "[2]": {"assay": "Lipophilicity by RP-HPLC (methanol/water, RP-18 column)", "assay_type": "physicochemical", "settings": "for −S (slope of the regression curve), RP–HPLC / log kw: methanol/water, RP-HPLC; for log kw: extrapolated to zero methanol concentration, 25 °C; for Φ0 (chromatographic lipophilicity parameter), RP–HPLC: Φ0 = −log kw/S", "protocol": "The HPLC experiments were performed on the Shimadzu HPLC system (Kyoto, Japan) equipped with solvent delivery pump LC-20AD, UV–VIS detector model SPD-20A, degasser model DGU-20A5, a column oven model CTO-20A, and a column Superspher® 100 RP-18 (4 μm), Merck (Darmstadt, Germany). Methanol and water for HPLC from POCH (Gliwice, Poland) were used as solvents. Mobile phase methanol/water varied in the various ratios. Methanol concentration expressed as volume fraction v/v, varied in the range from 0.55 to 0.95 in constant steps of 0.05. Compounds 1–28 were dissolved in methanol (1 mg/mL). The mobile phase flow rate was 0.7 mL/min. The injection volume was 0.02 mL. All analyzes were performed at 25 °C. Experiments were performed in triplicate with similar results.\nThe retention coefficient k was calculated from the following relationship:(1) k=tr/tm−1, where tr [min]—retention time, and tm [min]—time for dead volume (measured by use of uracil).\nTo determine the linear relationship between the values of the log k parameter and the concentration of methanol in the mobile phase, the Soczewiński–Wachtmeister equation was used:(2) logk= log kw+SΦ, where log kw —value extrapolated to zero methanol concentration, Φ —methanol concentration in the mobile phase (volume fraction v/v), and S—the slope of the regression curve.\nThe parameter Φ0 was calculated from the equation:(3) Φ0=−log kw/S."}}}
{"smiles": "CCCC1SC(NC(C)C)=NC1=O", "note": "(stereo not drawn) [Compound 3]", "values": [{"measurement": "−S (slope of the regression curve), RP–TLC", "setting": "[1]", "result": 2.422}, {"measurement": "RM0", "setting": "[1]", "result": 1.63}, {"measurement": "Φ0 (chromatographic lipophilicity parameter), RP–TLC", "setting": "[1]", "result": 0.673}, {"measurement": "−S (slope of the regression curve), RP–HPLC", "setting": "[2]", "result": 3.494}, {"measurement": "log kw", "setting": "[2]", "result": 2.28}, {"measurement": "Φ0 (chromatographic lipophilicity parameter), RP–HPLC", "setting": "[2]", "result": 0.652}]}
{"smiles": "O=C1N=C(NC23CC4CC(CC(C4)C2)C3)SC12CCCCC2", "note": "[Compound 26]", "values": [{"measurement": "−S (slope of the regression curve), RP–TLC", "setting": "[1]", "result": 3.520}, {"measurement": "RM0", "setting": "[1]", "result": 3.09}, {"measurement": "Φ0 (chromatographic lipophilicity parameter), RP–TLC", "setting": "[1]", "result": 0.879}, {"measurement": "−S (slope of the regression curve), RP–HPLC", "setting": "[2]", "result": 5.192}, {"measurement": "log kw", "setting": "[2]", "result": 4.49}, {"measurement": "Φ0 (chromatographic lipophilicity parameter), RP–HPLC", "setting": "[2]", "result": 0.865}]}
